Where a SMILES comes first, the peptide text is derived from it. Bridges are numbered along the chain shown (N, C = ends).
What was measured:
[1] = system: S. pneumoniae ATCC6305; experiment: MIC assays under standard conditions; format: cell-based, Streptococcus pneumoniae; conditions: Supplementary Table 1; cation-adjusted MHB + 5% lysed horse blood, 5% CO2, 20–24 h
Experimental: (§1) Plectasin and analogues were serially diluted in cation-adjusted Mueller–Hinton broth (MHB) in round-bottom polypropylene 96-well plates (50 µl per well). Selected bacterial strains were grown from glycerol stocks on blood agar plates. Individual colonies were inoculated in TSB and incubated at 37 °C while shaking until OD600 reached 0.5. Bacterial suspensions were then diluted 100 times in cation-adjusted MHB and distributed (50 μl per well) over the microplate containing the diluted plectasin solutions. Plates were covered by a gas-permeable adhesive membrane and incubated at 37 °C while shaking. MICs were determined by visual inspection after 16–20 h (Staphylococcus) or 20–24 h (Streptococcus). For Streptococcus strains, the broth was additionally supplemented with 5% lysed horse blood, and the microplates were incubated under 5% CO2 atmosphere. In the assays, we used the following strains: S. simulans, S. pneumoniae serotype 8, S. pneumoniae ATCC6305 and Streptococcus pyogenes M3.

[2] = system: S. simulans 22; experiment: MIC assays under standard conditions; format: cell-based, Staphylococcus simulans; conditions: for Minimum inhibitory concentration, S. simulans: Supplementary Table 1, cation-adjusted MHB, 37 °C, 16–20 h
Experimental: as §1

Question: Which results are given for `CSCC[C@@H]1NC(=O)[C@H](CC(=O)O)NC(=O)[C@H](CC(=O)O)NC(=O)[C@H](CCC(=O)O)NC(=O)[C@H](CC(=O)O)NC(=O)[C@H](Cc2c[nH]c3ccccc23)NC(=O)[C@@H]2CCCN2C(=O)CNC(=O)[C@H](CC(N)=O)NC(=O)[C@@H](NC(=O)CNC(=O)[C@H](Cc2ccccc2)NC(=O)CN)CSSC[C@@H]2NC(=O)[C@H](Cc3ccc(O)cc3)NC(=O)CNC(=O)CNC(=O)[C@H](CCCCN)NC(=O)[C@H](Cc3ccc(O)cc3)NC(=O)CNC(=O)[C@H](CCCCN)NC(=O)[C@H](CCCCN)NC(=O)[C@H](CO)NC(=O)[C@H](CCCCN)NC(=O)[C@@H]3CSSC[C@@H](C(=O)N[C@@H](Cc4ccc(O)cc4)C(=O)O)NC(=O)[C@H](CCCCN)NC(=O)[C@H](CSSC[C@H](NC(=O)[C@H](CCC(N)=O)NC1=O)C(=O)N[C@@H](Cc1c[nH]cn1)C(=O)N[C@@H](CC(N)=O)C(=O)N[C@@H](Cc1c[nH]cn1)C(=O)N3)NC(=O)[C@H](C(C)C)NC(=O)[C@H](Cc1ccccc1)NC(=O)CNC(=O)CNC(=O)[C@H](CCCCN)NC(=O)[C@H](C)NC2=O` [I22K] (H-GFGCNGPWDEDDMQCHNHCKSKKGYKGGYCAKGGFVCKCY-OH; disulfide 4-30, 15-37, 19-39 (inferred); N-terminus and C-terminus assumed)?
Answer: Minimum inhibitory concentration, S. pneumoniae ATCC6305 [1]: > 50 µg/mL; Minimum inhibitory concentration, S. simulans [2]: > 50 µg/mL

Question: Which “Minimum inhibitory concentration, S. pneumoniae ATCC6305” value [1] does the source give for `CC[C@H](C)[C@@H]1NC(=O)[C@H](CO)NC(=O)[C@H](CCCCN)NC(=O)[C@@H]2CSSC[C@@H](C(=O)N[C@@H](Cc3ccc(O)cc3)C(=O)O)NC(=O)[C@H](CCCCN)NC(=O)[C@@H]3CSSC[C@H](NC(=O)[C@H](CCC(N)=O)NC(=O)[C@H](CCSC)NC(=O)[C@H](CC(=O)O)NC(=O)[C@H](CC(=O)O)NC(=O)[C@H](CCC(=O)O)NC(=O)[C@H](CC(=O)O)NC(=O)[C@H](Cc4c[nH]c5ccccc45)NC(=O)[C@@H]4CCCN4C(=O)CNC(=O)[C@H](CC(N)=O)NC(=O)[C@@H](NC(=O)CNC(=O)[C@H](Cc4ccccc4)NC(=O)CN)CSSC[C@H](NC(=O)[C@H](CCCNC(=N)N)NC(=O)CNC(=O)CNC(=O)[C@H](CCCCN)NC(=O)[C@H](Cc4ccc(O)cc4)NC(=O)CNC(=O)[C@H](CCCCN)NC1=O)C(=O)N[C@@H](C)C(=O)N[C@@H](CCCCN)C(=O)NCC(=O)NCC(=O)N[C@@H](Cc1ccccc1)C(=O)N[C@@H](C(C)C)C(=O)N3)C(=O)N[C@@H](Cc1c[nH]cn1)C(=O)N[C@@H](CC(N)=O)C(=O)N[C@@H](Cc1c[nH]cn1)C(=O)N2` [Y29R] (H-GFGCNGPWDEDDMQCHNHCKSIKGYKGGRCAKGGFVCKCY-OH; disulfide 4-30, 15-37, 19-39 (inferred); N-terminus and C-terminus assumed) here?
Answer: 1,56 μg/mL

Question: What about the “Minimum inhibitory concentration, S. simulans” value [2] of the same molecule?
Answer: 1,56 μg/mL

Question: With `CC[C@H](C)[C@@H]1NC(=O)[C@H](CO)NC(=O)[C@H](CCCCN)NC(=O)[C@@H]2CSSC[C@@H](C(=O)N[C@@H](Cc3ccc(O)cc3)C(=O)O)NC(=O)[C@H](CCCCN)NC(=O)[C@@H]3CSSC[C@H](NC(=O)[C@H](CCC(N)=O)NC(=O)[C@H](CCSC)NC(=O)[C@H](CC(=O)O)NC(=O)[C@H](CC(=O)O)NC(=O)[C@H](CCC(=O)O)NC(=O)[C@H](CC(=O)O)NC(=O)[C@H](Cc4c[nH]c5ccccc45)NC(=O)[C@@H]4CCCN4C(=O)CNC(=O)[C@H](CC(N)=O)NC(=O)[C@@H](NC(=O)CNC(=O)[C@H](Cc4ccccc4)NC(=O)CN)CSSC[C@H](NC(=O)[C@H](Cc4ccccc4)NC(=O)CNC(=O)CNC(=O)[C@H](CCCCN)NC(=O)[C@H](Cc4ccc(O)cc4)NC(=O)CNC(=O)[C@H](CCCCN)NC1=O)C(=O)N[C@@H](C)C(=O)N[C@@H](CCCCN)C(=O)NCC(=O)NCC(=O)N[C@@H](Cc1ccccc1)C(=O)N[C@@H](C(C)C)C(=O)N3)C(=O)N[C@@H](Cc1c[nH]cn1)C(=O)N[C@@H](CC(N)=O)C(=O)N[C@@H](Cc1c[nH]cn1)C(=O)N2` [Y29F] (H-GFGCNGPWDEDDMQCHNHCKSIKGYKGGFCAKGGFVCKCY-OH; disulfide 4-30, 15-37, 19-39 (inferred); N-terminus and C-terminus assumed) as the molecule, how does the “Minimum inhibitory concentration, S. pneumoniae ATCC6305” value [1] read?
Answer: ≤ 0.78 µg/mL

Question: What about the “Minimum inhibitory concentration, S. simulans” value [2] of the same molecule?
Answer: 1,56 μg/mL

Question: How did the “Minimum inhibitory concentration, S. pneumoniae ATCC6305” value [1] turn out when `CC[C@H](C)[C@@H]1NC(=O)[C@H](CO)NC(=O)[C@H](CCCCN)NC(=O)[C@@H]2CSSC[C@@H](C(=O)N[C@@H](Cc3ccc(O)cc3)C(=O)O)NC(=O)[C@H](CCCCN)NC(=O)[C@@H]3CSSC[C@H](NC(=O)[C@H](CCC(N)=O)NC(=O)[C@H](CCSC)NC(=O)[C@H](CC(=O)O)NC(=O)[C@H](CC(=O)O)NC(=O)[C@H](CCC(=O)O)NC(=O)[C@H](CC(=O)O)NC(=O)[C@H](Cc4c[nH]c5ccccc45)NC(=O)[C@@H]4CCCN4C(=O)CNC(=O)[C@H](CC(N)=O)NC(=O)[C@@H](NC(=O)CNC(=O)[C@H](Cc4ccccc4)NC(=O)CN)CSSC[C@H](NC(=O)[C@H](Cc4ccc(O)cc4)NC(=O)CNC(=O)CNC(=O)[C@H](CCCCN)NC(=O)[C@H](Cc4ccccc4)NC(=O)CNC(=O)[C@H](CCCCN)NC1=O)C(=O)N[C@@H](C)C(=O)N[C@@H](CCCCN)C(=O)NCC(=O)NCC(=O)N[C@@H](Cc1ccccc1)C(=O)N[C@@H](C(C)C)C(=O)N3)C(=O)N[C@@H](Cc1c[nH]cn1)C(=O)N[C@@H](CC(N)=O)C(=O)N[C@@H](Cc1c[nH]cn1)C(=O)N2` [Y25F] (H-GFGCNGPWDEDDMQCHNHCKSIKGFKGGYCAKGGFVCKCY-OH; disulfide 4-30, 15-37, 19-39 (inferred); N-terminus and C-terminus assumed) was run?
Answer: 3,125 μg/mL

Question: And the “Minimum inhibitory concentration, S. simulans” value [2]?
Answer: 1,56 μg/mL

Question: With `CC[C@H](C)[C@@H]1NC(=O)[C@H](CO)NC(=O)[C@H](CCCCN)NC(=O)[C@@H]2CSSC[C@@H](C(=O)N[C@@H](Cc3ccc(O)cc3)C(=O)O)NC(=O)[C@H](CCCCN)NC(=O)[C@@H]3CSSC[C@H](NC(=O)[C@H](CCC(N)=O)NC(=O)[C@H](CCSC)NC(=O)[C@H](CC(=O)O)NC(=O)[C@H](CC(=O)O)NC(=O)[C@H](CCC(=O)O)NC(=O)[C@H](CC(=O)O)NC(=O)[C@H](Cc4c[nH]c5ccccc45)NC(=O)[C@@H]4CCCN4C(=O)CNC(=O)[C@H](CC(N)=O)NC(=O)[C@@H](NC(=O)CNC(=O)[C@H](Cc4ccccc4)NC(=O)CN)CSSC[C@H](NC(=O)[C@H](Cc4ccc(O)cc4)NC(=O)CNC(=O)CNC(=O)[C@H](C)NC(=O)[C@H](Cc4ccc(O)cc4)NC(=O)CNC(=O)[C@H](CCCCN)NC1=O)C(=O)N[C@@H](C)C(=O)N[C@@H](CCCCN)C(=O)NCC(=O)NCC(=O)N[C@@H](Cc1ccccc1)C(=O)N[C@@H](C(C)C)C(=O)N3)C(=O)N[C@@H](Cc1c[nH]cn1)C(=O)N[C@@H](CC(N)=O)C(=O)N[C@@H](Cc1c[nH]cn1)C(=O)N2` [K26A] (H-GFGCNGPWDEDDMQCHNHCKSIKGYAGGYCAKGGFVCKCY-OH; disulfide 4-30, 15-37, 19-39 (inferred); N-terminus and C-terminus assumed) as the molecule, how does the “Minimum inhibitory concentration, S. pneumoniae ATCC6305” value [1] read?
Answer: 3,13 μg/mL

Question: And the “Minimum inhibitory concentration, S. simulans” value [2]?
Answer: 3,13 μg/mL

Question: And the “reduction in activity vs plectasin” value ([2]; from MIC of Table 1)?
Answer: fivefold to tenfold

Question: What does the source list for `CC[C@H](C)[C@@H]1NC(=O)[C@H](CO)NC(=O)[C@H](CCCCN)NC(=O)[C@@H]2CSSC[C@@H](C(=O)N[C@@H](CCCNC(=N)N)C(=O)O)NC(=O)[C@H](CCCCN)NC(=O)[C@@H]3CSSC[C@H](NC(=O)[C@H](CCC(N)=O)NC(=O)[C@H](CCSC)NC(=O)[C@H](CC(=O)O)NC(=O)[C@H](CC(=O)O)NC(=O)[C@H](CCC(=O)O)NC(=O)[C@H](CC(=O)O)NC(=O)[C@H](Cc4c[nH]c5ccccc45)NC(=O)[C@@H]4CCCN4C(=O)CNC(=O)[C@H](CC(N)=O)NC(=O)[C@@H](NC(=O)CNC(=O)[C@H](Cc4ccccc4)NC(=O)CN)CSSC[C@H](NC(=O)[C@H](Cc4ccc(O)cc4)NC(=O)CNC(=O)CNC(=O)[C@H](CCCCN)NC(=O)[C@H](Cc4ccc(O)cc4)NC(=O)CNC(=O)[C@H](CCCCN)NC1=O)C(=O)N[C@@H](C)C(=O)N[C@@H](CCCCN)C(=O)NCC(=O)NCC(=O)N[C@@H](Cc1ccccc1)C(=O)N[C@@H](C(C)C)C(=O)N3)C(=O)N[C@@H](Cc1c[nH]cn1)C(=O)N[C@@H](CC(N)=O)C(=O)N[C@@H](Cc1c[nH]cn1)C(=O)N2` [Y40R] (H-GFGCNGPWDEDDMQCHNHCKSIKGYKGGYCAKGGFVCKCR-OH; disulfide 4-30, 15-37, 19-39 (inferred); N-terminus and C-terminus assumed)?
Answer: Minimum inhibitory concentration, S. pneumoniae ATCC6305 [1]: > 50 µg/mL; Minimum inhibitory concentration, S. simulans [2]: > 50 µg/mL
